Reference: patent US20100113599A1, “AMPHIPATHIC CARBOXYLATES FOR THE TREATMENT OF IMMUNE-RELATED DISORDERS” (Syndromex Ltd. c/o Yissum Research Development Company, of, priority 2007, published 2010)

What was measured:
[1] = tested on: gp130; test: gp130 protein levels in HepG2 cells (Western blot); type: cell-based, human; conditions: 200 μM for 17 and 24 h, LIF 20 ng/ml
Protocol: (§1) MEDICA drugs inhibit LIF-induced STAT3 phosphorylation. HepG2 cells were incubated with M16αα (200 μM) for 17 and 24 h. At each time point LIF (20 ng/ml) was added for the last 20 minutes (for protein) or for the last 3 h (for mRNA). Western blots of cell lysates were reacted with anti gp130 and anti P-STAT3 (Y705) antibodies and normalized by β-actin.
(§2) MEDICA drugs inhibit IL-6-induced STAT3 phosphorylation. HepG2 cells were incubated for 40 h with […] M16αα. IL-6 (20 ng/ml) was added for the last 15 h. Western blots of cell lysates were reacted, with anti GP-130, anti STAT3, anti P-STAT3 (Y705) and anti P-STAT3 (S727) antibodies and normalized by β-actin. Abbreviations: cont. (control), dim. (dimer), Tot. (total), mono. (monomer).
The examined effect of MEDICA drugs on expression of APP, was further analyzed by analyzing the effect of M16αα on downstream elements in the signaling pathway leading to expression of APP. Signal Transducers and Activators of Transcription 3 (STAT3), is a transcription factor phosphorylated by JAK kinases in response to cytokine activation of a cell surface receptor tyrosine kinases. Cytokines that activate STAT3 include growth hormone, IL-6 family cytokines, Oncostatin, LIF, CNTF and G-CSF, Leptin and others. […]

[2] = tested on: U266 cells; test: Cell cycle arrest markers in MM U266 cells (Western blot); type: cell-based; conditions: 200 μM, 24 h
Protocol: U266 cells were cultured with 200 μM M16αα in RPMI 1640 medium with 10% FCS for 24 h, lysed, Western blotted and reacted with anti Cyclin D1, p-P53 (S15) and p-Rb as indicated.

[3] = tested on: STAT3; test: LIF- or IL-6-induced STAT3 phosphorylation in HepG2 cells (Western blot); type: cell-based, human
Protocol: as §1, §2
The examined effect of MEDICA drugs on expression of APP, was further analyzed by analyzing the effect of M16αα on downstream elements in the signaling pathway leading to expression of APP. Signal Transducers and Activators of Transcription 3 (STAT3), is a transcription factor phosphorylated by JAK kinases in response to cytokine activation of a cell surface receptor tyrosine kinases. Cytokines that activate STAT3 include growth hormone, IL-6 family cytokines, Oncostatin, LIF, CNTF and G-CSF, Leptin and others. As illustrated by FIG. 1, upon cytokine activation, the STAT3 proteins dimerize and are localized to the nucleus where they activate transcription of APP as well as of other cytokine-responsive genes coding for cell survival, growth and proliferation. Therefore, the inventors next examined whether the effect of MEDICA drugs on the expression of APP is a result of interfering with STAT3 transcription activity or whether MEDICA drugs are involved in a more upstream element of the transduction pathway such as the gp130 receptor. Since dimerization and activation of STAT3 is dependent on its phosphorylation in both, tyrosine 705 (pY^705) and serine 727 (pS^727) residues, the inventors next examined the effect of M16αα on the phosphorylation of STAT3. Thus, HepG2 cells were incubated with M16αα (200 μM) for 17 and 24 h. […]

[4] = 200 mM M16αα 40 h, IL-6 20 ng/ml last 15 h

Q: What does the source list for CC(C)(CCCCCCCCCCCCC(C)(C)C(=O)O)C(=O)O [M16αα, 2,2,15,15-tetramethyl-hexadecanedioic acid]?
A: gp130 protein levels [1]: significantly reduced; Cyclin D1 expression [2]: reduction; phosphorylated Rb [2]: reduction; phosphorylated p53 [2]: increase; LIF-induced phosphorylation of tyrosine 705 residue of STAT3 ([3]; 200 μM for 17 and 24 h, LIF 20 ng/ml): clearly inhibits; expression of STAT3 (total STAT3) [3, 4]: not affected; phosphorylation of STAT3 serine 727 residue [3, 4]: significantly inhibited
